Laboratory results from patent US20210128566A1, “NOVEL FUNCTIONALIZED PURINE-2,6-DIONES AND THEIR USE IN MEDICINE” (THOMAS HELLEDAYS STIFTELSE FÖR MEDICINSK FORSKNING, priority 2017, published 2021).

Biological target: recombinant human NUDT5 (Homo sapiens, UniProt Q9UKK9)
Test: NUDT5 inhibitor activity by malachite green reporter assay
Format: biochemical
Details: 6 nM NUDT5, 50 μM ADP-Ribose, 15 minutes at room temperature
Protocol: NUDT5 inhibitors were evaluated using a coupled enzymatic assay with detection of inorganic phosphate (Pi) using the malachite green assay. Following enzymatic hydrolysis of ADP-Ribose (Sigma-Aldrich A0572) by NUDT5, to yield AMP and ribose-5-phosphate, the latter product is continuously processed by a significant excess of alkaline phosphatase (Sigma-Aldrich, P0114). Formation of Pi is quantified based on the green complex (that absorbs at 630 nm) formed between malachite green and molybdate according to published procedure (Baykov, A. A., Evtushenko, O. A. and Avaeva, S. M., Anal Biochem, 171, 266-270 (1988)). Assay buffer consisted of 10 mM Tris-acetate at pH 8.0, 40 mM sodium chloride, 10 mM magnesium acetate, 0.005% Tween-20 and 1 mM dithiothreitol (DTT). The final conditions consisted of 6 nM recombinant human NUDT5, 50 μM ADP-Ribose and 10 U/ml of calf intestine alkaline phosphatase. The plates with compounds, enzymes and substrate were incubated at room temperature for 15 minutes, after which the reaction was terminated and the signal developed by the addition of the malachite green reagent using a MultiDrop (Thermo Scientific). Following vigorous shaking on plate shakers for a minimum of eight minutes the absorbance was read in a microplate reader (HidexSense) using a filter at 630 nm and a read time of 0.1 s per well. Inhibitors were used in dilutions from 100 μM to 1.7 nM in 3-fold dilution steps. Experiments were run in duplicate and confirmed in two independent experiments. IC50 values were determined by curve fitting using ExcelFit.

Row | SMILES | IC50 (Table 4) [nM] | IC50 (Table 3) [nM]
1 | Cc1ccc(-c2cc(Cn3c(Cl)nc4c3c(=O)n(C)c(=O)n4C)no2)cc1 [Example 80, 8-chloro-1,3-dimethyl-7-{[5-(4-methylphenyl)-1,2-oxazol-3-yl]methyl}-2,3,6,7-tetrahydro-1H-purine-2,6-dione] | 3790 | 
2 | Cn1c(=O)c2c(nc(Cl)n2Cc2cn(-c3ccc(Cl)c(Cl)c3)nn2)n(C)c1=O [Example 143, 8-chloro-7-{[1-(3,4-dichlorophenyl)-1H-1,2,3-triazol-4-yl]methyl}-1,3-dimethyl-2,3,6,7-tetrahydro-1H-purine-2,6-dione] | 14000 | 
3 | Cn1c(=O)c2c(nc(Cl)n2Cc2coc(-c3ccc(Cl)c(Cl)c3)n2)n(C)c1=O [Example 71, 8-chloro-7-{[2-(3,4-dichlorophenyl)-1,3-oxazol-4-yl]methyl}-1,3-dimethyl-2,3,6,7-tetrahydro-1H-purine-2,6-dione] | 81.6 | 
4 | Cc1ccc(-c2cc(Cn3c(N4CCNCC4)nc4c3c(=O)n(C)c(=O)n4C)no2)cc1 [Example 79, 1,3-dimethyl-7-{[5-(4-methylphenyl)-1,2-oxazol-3-yl]methyl}-8-(piperazin-1-yl)-2,3,6,7-tetrahydro-1H-purine-2,6-dione] | 530 | 
5 | COc1ccc(CNc2nc3c(c(=O)n(C)c(=O)n3C)n2Cc2nnc(-c3ccc(Cl)c(Cl)c3)o2)c(OC)c1 [Example 86, 7-{[5-(3,4-dichlorophenyl)-1,3,4-oxadiazol-2-yl]methyl}-8-{[(2,4-dimethoxyphenyl)methyl]amino}-1,3-dimethyl-2,3,6,7-tetrahydro-1H-purine-2,6-dione] | 184 | 
6 | Cc1ccc(-c2nnc(Cn3c(Cl)nc4c3c(=O)n(C)c(=O)n4C)o2)cn1 [Example 106, 8-chloro-1,3-dimethyl-7-{[5-(6-methylpyridin-3-yl)-1,3,4-oxadiazol-2-yl]methyl}-2,3,6,7-tetrahydro-1H-purine-2,6-dione] | 2920 | 
7 | Cn1c(=O)c2c(nc(N3CCNCC3)n2Cc2cn(-c3ccc(Cl)c(Cl)c3)nn2)n(C)c1=O [Example 144, 7-{[1-(3,4-dichlorophenyl)-1H-1,2,3-triazol-4-yl]methyl}-1,3-dimethyl-8-(piperazin-1-yl)-2,3,6,7-tetrahydro-1H-purine-2,6-dione] | 155 | 
8 | COc1cc(-c2nnc(Cn3c(NCCC(N)=O)nc4c3c(=O)n(C)c(=O)n4C)o2)ccc1C [Example 132, 3-[(7-{[5-(3-methoxy-4-methylphenyl)-1,3,4-oxadiazol-2-yl]methyl}-1,3-dimethyl-2,6-dioxo-2,3,6,7-tetrahydro-1H-purin-8-yl)amino]propanamide] | 157 | 
9 | Cn1c(=O)c2c(nc(Cl)n2Cc2nnc(-c3ccc(C#N)cc3)o2)n(C)c1=O [Example 93, 4-{5-[(8-chloro-1,3-dimethyl-2,6-dioxo-2,3,6,7-tetrahydro-1H-purin-7-yl)methyl]-1,3,4-oxadiazol-2-yl}benzonitrile] | 918 | 
10 | COc1cc(-c2nnc(Cn3c(N(C)CCN(C)C)nc4c3c(=O)n(C)c(=O)n4C)o2)ccc1C [Example 137, 8-{[2-(dimethylamino)ethyl](methyl)amino}-7-{[5-(3-methoxy-4-methylphenyl)-1,3,4-oxadiazol-2-yl]methyl}-1,3-dimethyl-2,3,6,7-tetrahydro-1H-purine-2,6-dione] | 24.1 | 
11 | Cc1cccc(-c2nnc(Cn3c(NCc4ccccc4)nc4c3c(=O)n(C)c(=O)n4C)o2)c1 [Example 50, 8-(benzylamino)-1,3-dimethyl-7-{[5-(3-methylphenyl)-1,3,4-oxadiazo-2-yl]methyl}-2,3,6,7-tetrahydro-1H-purine-2,6-dione] |  | 144
12 | COc1cc(-c2nnc(Cn3c(NCC4CCN(C(=N)N)CC4)nc4c3c(=O)n(C)c(=O)n4C)o2)ccc1C [Example 128, 4-{[(7-{[5-(3-methoxy-4-methylphenyl)-1,3,4-oxadiazol-2-yl]methyl}-1,3-dimethyl-2,6-dioxo-2,3,6,7-tetrahydro-1H-purin-8-yl)amino]methyl}piperidine-1-carboximidamide] | 128 | 

Second part, the compound after the results:

Row | IC50 (Table 4) [nM] | IC50 (Table 3) [nM] | SMILES
13 | 198 |  | COc1ccc(-c2nnc(Cn3c(N4CCNCC4)nc4c3c(=O)n(C)c(=O)n4C)o2)cc1 [Example 74, 7-{[5-(4-methoxyphenyl)-1,3,4-oxadiazol-2-yl]methyl}-1,3-dimethyl-8-(piperazin-1-yl)-2,3,6,7-tetrahydro-1H-purine-2,6-dione]
14 |  | 20.3 | Cn1c(=O)c2c(nc(N3CCC(CO)CC3)n2Cc2nnc(-c3ccc(Cl)c(Cl)c3)o2)n(C)c1=O [Example 40, 7-{[5-(3,4-dichlorophenyl)-1,3,4-oxadiazol-2-yl]methyl}-8-[4-(hydroxymethyl)piperidin-1-yl]-1,3-dimethyl-2,3,6,7-tetrahydro-1H-purine-2,6-dione]
15 |  | 32.7 | COC(=O)C1CCN(c2nc3c(c(=O)n(C)c(=O)n3C)n2Cc2nnc(-c3ccc(Cl)c(Cl)c3)o2)CC1 [Example 39, methyl 1-(7-{[5-(3,4-dichlorophenyl)-1,3,4-oxadiazol-2-yl]methyl}-1,3-dimethyl-2,6-dioxo-2,3,6,7-tetrahydro-1H-purin-8-yl)piperidine-4-carboxylate]
16 |  | 50.3 | Cn1c(=O)c2c(nc(N3CCCCCC3)n2Cc2nnc(-c3ccc(Cl)c(Cl)c3)o2)n(C)c1=O [Example 21, 8-(azepan-1-yl)-7-{[5-(3,4-dichlorophenyl)-1,3,4-oxadiazol-2-yl]methyl}-1,3-dimethyl-2,3,6,7-tetrahydro-1H-purine-2,6-dione]
17 |  | 12 | C[C@H]1CN(c2nc3c(c(=O)n(C)c(=O)n3C)n2Cc2nnc(-c3ccc(Cl)c(Cl)c3)o2)CCN1 [Example 46, 7-{[5-(3,4-dichlorophenyl)-1,3,4-oxadiazol-2-yl]methyl}-1,3-dimethyl-8-[(3S)-3-methylpiperazin-1-yl]-2,3,6,7-tetrahydro-1H-purine-2,6-dione]
18 |  | 324 | Cn1c(=O)c2c(nc(N3CC(NC(=O)OC(C)(C)C)C3)n2Cc2nnc(-c3ccc(Cl)c(Cl)c3)o2)n(C)c1=O [Example 26, tert-butyl N-[1-(7-{[5-(3,4-dichlorophenyl)-1,3,4-oxadiazol-2-yl]methyl}-1,3-dimethyl-2,6-dioxo-2,3,6,7-tetrahydro-1H-purin-8-yl)azetidin-3-yl]carbamate]
19 | 454 |  | Cn1c(=O)c2c(nc(NCCS(=O)(=O)O)n2Cc2nnc(-c3ccc(Cl)c(Cl)c3)o2)n(C)c1=O [Example 82, 2-[(7-{[5-(3,4-dichlorophenyl)-1,3,4-oxadiazol-2-yl]methyl}-1,3-dimethyl-2,6-dioxo-2,3,6,7-tetrahydro-1H-purin-8-yl)amino]ethane-1-sulfonic acid]
20 | 309 |  | Cn1c(=O)c2c(nc(N3CCNCC3)n2Cc2nnc(-c3ccc4[nH]ncc4c3)o2)n(C)c1=O [Example 124, 7-{[5-(1H-indazol-5-yl)-1,3,4-oxadiazol-2-yl]methyl}-1,3-dimethyl-8-(piperazin-1-yl)-2,3,6,7-tetrahydro-1H-purine-2,6-dione]
21 | 64.8 |  | Cc1cc(-c2nnc(Cn3c(Cl)nc4c3c(=O)n(C)c(=O)n4C)o2)ccc1Cl [Example 97, 8-chloro-7-{[5-(4-chloro-3-methylphenyl)-1,3,4-oxadiazol-2-yl]methyl}-1,3-dimethyl-2,3,6,7-tetrahydro-1H-purine-2,6-dione]
22 | 80.5 |  | Cn1c(=O)c2c(nc(N3CCNCC3)n2Cc2nnc(-c3ccc4cc[nH]c4c3)o2)n(C)c1=O [Example 120, 7-{[5-(1H-indol-6-yl)-1,3,4-oxadiazol-2-yl]methyl}-1,3-dimethyl-8-(piperazin-1-yl)-2,3,6,7-tetrahydro-1H-purine-2,6-dione]
23 | 93.6 |  | Cn1c(=O)c2c(nc(NCC(=O)OC(C)(C)C)n2Cc2nnc(-c3ccc(Cl)c(Cl)c3)o2)n(C)c1=O [Example 84, tert-butyl 2-[(7-{[5-(3,4-dichlorophenyl)-1,3,4-oxadiazol-2-yl]methyl}-1,3-dimethyl-2,6-dioxo-2,3,6,7-tetrahydro-1H-purin-8-yl)amino]acetate]
24 |  | 759 | Cn1c(=O)c2c(nc(N3CCOCC3)n2Cc2nnc(-c3ccc(Cl)c(Cl)c3)o2)n(C)c1=O [Example 13, 7-{[5-(3,4-dichlorophenyl)-1,3,4-oxadiazol-2-yl]methyl}-1,3-dimethyl-8-(morpholin-4-yl)-2,3,6,7-tetrahydro-1H-purine-2,6-dione]
25 | 96.3 |  | CN(C)CCN(C)c1nc2c(c(=O)n(C)c(=O)n2C)n1Cc1nnc(-c2ccc(Cl)c(Cl)c2)o1 [Example 135, 7-{[5-(3,4-dichlorophenyl)-1,3,4-oxadiazol-2-yl]methyl}-8-{[2-(dimethylamino)ethyl](methyl)amino}-1,3-dimethyl-2,3,6,7-tetrahydro-1H-purine-2,6-dione]
26 | 212 |  | Cn1c(=O)c2c(nc(N3CCNCC3)n2Cc2nnc(-c3ccccc3)o2)n(C)c1=O [Example 107, 1,3-dimethyl-7-[(5-phenyl-1,3,4-oxadiazol-2-yl)methyl]-8-(piperazin-1-yl)-2,3,6,7-tetrahydro-1H-purine-2,6-dione]
27 | 21 |  | Cn1c(=O)c2c(nc(N3CCNCC3)n2Cc2coc(-c3ccc(Cl)c(Cl)c3)n2)n(C)c1=O [Example 72, 7-{[2-(3,4-dichlorophenyl)-1,3-oxazol-4-yl]methyl}-1,3-dimethyl-8-(piperazin-1-yl)-2,3,6,7-tetrahydro-1H-purine-2,6-dione]
